Test results as given in US20210198258A1, “INTEGRIN ANTAGONISTS” (Oxurion NV, priority 2018, published 2021).

Key:
[1] = test system: RPE-choroid sclera explants; conditions: read-out: IC50 vessel outgrowth; murine choroid explants in fibrin gel, 3 to 4 days
Text: The assay is based on a murine microvascular angiogenesis explant model, which closely mimics in viva choroidal angiogenesis. […] The choroidal explant model or briefly EMCA model allows for rapid evaluation of new anti-angiogenic therapeutics, with the additional benefit of excluding the potential lack of exposure often encountered when testing small molecules in animal eyes. RPE-choroid sclera explants (hereinafter referred to as choroid explants) are embedded in a three-dimensional fibrinogen/fibrin gel. Addition of serum-containing medium induces extensive endothelial cell sprout outgrowth into the matrix after 3 to 4 days in culture.
All experiments were performed using 4 to 5-weeks old male C57BL/6J mice (Charles River Laboratories France), housed under standard laboratory conditions according to a normal day/night rhythm with ad libitum access to food and water. […]
After 3 to 4 days, bright field pictures were taken at 2.5× magnification with the Axio Vert.A1 inverted microscope (Zeiss) using ZEN lite 2012 microscope software (Zeiss). […] Further analysis was performed in Microsoft Excel, where the sprouting area of endothelial organotypic culture was quantified by subtracting the area of the tissue explant from the total area occupied by the sprouts.

[2] = test system: human umbilical vein endothelial cells (HUVECs); assay: ORIS Cell Migration Assay; assay type: cell-based; conditions: HUVEC, fibronectin-coated plates, 24 h migration
Experimental: Endothelial cell wound healing is mediated by endothelial cell migration and proliferation, both critical components of the angiogenesis process, and is routinely used as a surrogate model for in vitro angiogenic potential. The ORIS™ Cell Migration Assay was used with human umbilical vein endothelial cells (HUVECs).
HUVEC cells (SCCE-001, Cat no. 1000519, Merck Chemicals) were cultured in T175 flasks (Cat no 353112, falcon) in EndoGro Growth Medium (SCME-003, Merck Chemicals) and split when they reached 90-100% confluence.
For the assay, cells were used at passage 2 to 4 after thawing and at 80-90% confluency. At the beginning of the day, the fibronectin-coated Oris™ Cell Migration Assay Plates (Cat no #CMAFN.I01, AMS Biotechnology) were removed from refrigeration and placed at RT for 1 h. […]
Just prior to the end of the incubation, a 4 μg/mL calcein AM (Cat no 354217, Beckton Dickinson) solution was prepared in pre-warmed HBSS (Cat no 14025, Gibco). […] After incubation the fluorescence was read at 494 nm excitation and 517 nm emission wavelengths using the Flexstation and the SofiMax Pro 5.4.5 software (Molecular Devices). The fluorescence was read from the bottom of the plates with the lid on to keep them sterile. The masks were then removed and pictures were taken with the Axiovert fluorescence microscope (Zeiss) using reflected light, GFP and a 2.5× objective.

CC(C)[C@H]1C(=O)N[C@@H](CCCN=C(N)N)C(=O)NCC(=O)N[C@@H](CC(=O)O)C(=O)N[C@H](Cc2ccccc2)C(=O)N1C [Cilengitide]
IC50 [1]: ~300 µM
IC50 [2]: 100 µM
